# Measured values taken from paper PMC11288129, “Diversely evolved xibalbin variants from remipede venom inhibit potassium channels and activate PKA-II and Erk1/2 signaling” (BMC Biology, 2024).
# What was measured:
# Assay type in all cases: cell-based
# [1] = test system: PKA-II (phospho-RIIα/β) in rat DRG neurons; assay: High-content imaging of PKA-II activity (pRII) in DRG sensory neurons
# Description: (§1) To gauge sensory neuron activity in response to various activating stimuli, including electrical activity, phosphorylation state detection of protein kinase A type II (PKA-II) and MAP kinase Erk1/2 can act as surrogate measurements. Consequently, we tested for increased phosphorylation states in a concentration-dependent manner following exposure to xibalbins. Dissociated DRG neurons were cultured overnight and then exposed to increasing concentrations of the corresponding xibalbins for 5 min and 30 min, respectively. As a positive control, forskolin (Fsk) was also used to induce cAMP synthesis. The activity of PKA-II was monitored by antibodies directed against the phosphorylation site of the inhibitory regulatory subunits RIIα/β, which is exclusively accessible when the catalytic kinase domain is released during kinase activation. For measuring Erk1/2 activity, phospho-sites on Erk1/2 (T202/Y204) were monitored through immunofluorescence, as these sites are phosphorylated during activation. Cellular images were captured using HCI microscopy (Fig. 8A), and the average intensity of each phospho-antibody was quantified (Fig. 8B).
# (§2) Fig. 8 A Representative images of rat DRG neurons stimulated with PBS (Ctrl) and xib1b (0.8 µg/µL). Cells were stained for UCHL1, pRII, pERK1/2, and Hoechst followed by fixation and staining with standard immunocytochemistry protocols. Green-encircled neurons indicate automatically selected objects. Scale bar: 100 µm. B Mean intensities of UCHL1, pRII, and pERK1/2. The same UCHL1 intensities were observed among tested groups. Forskolin (Fsk), an activator of adenylyl cyclase, was used as a positive control. Fsk at 6 µM concentration induced an increase in pRII and pERK1/2 intensities at 5 and 30 min. Number of analyzed cells per replica: 750 ± 200. Eight independent replicas. C–F Concentration responses of xibalbin toxins (0.005 to 0.8 µg/µL) and mean intensities of pRII and pERK1/2 at 5 min and 30 min. G–H Size versus pRII and pErk1/2 intensities of cells treated with 0.8 µg/µL of xib1 and xib13. Small-sized cells were responding to xibalbins. Statistical significance was assessed using one-way ANOVA with Dunnett’s post hoc test. Data represent mean ± S.E.M (standard error of the mean), n = 4, see “Methods” for details and Additional File 6: Table S2 for individual data values
# (§3) Male Sprague Dawley rats (250–400 g, 8–16 weeks old) were obtained from Envigo. Rats were kept in 12 h of light/darkness cycles. All experiments were performed in accordance with the German animal welfare law with permission of the District Government for Nature and Environment, NRW (84–02.05.20.13.045, 4.18.003). Rats were scarified by slow inhalation of CO2 which was followed by decapitation. DRGs were extracted from rats, deheated, pooled, and incubated in Neurobasal A/B27 medium (Invitrogen, #12349–015) supplemented with B-27 (Invitrogen #17504), L-glutamine 1:400, L-glutamate 1:270.3, and penicillin/streptomycin 1:100 containing 0.2 U/mL collagenase P (collagenase P, Roche, #1213857) and incubated for 1 h at 37 °C, 5% CO2. DRGs were dissociated with pasteur pipettes and axon stumps were separated by BSA (Sigma-Aldrich, # A2153-100G) gradient centrifugation (14% BSA, 120 g, 8 min). Cells were resuspended in NBA medium, plated in 96-well imaging plate (Greiner BioOne Sensoplate, Black, #655896) precoated with poly-L-ornithine hydrochloride (0.1 mg/ml Sigma, #P2533)/laminin (5 µg/ml Invitrogen, #23017–015), and incubated overnight at 37 °C, 5% CO2.
# (§4) DRGs were stimulated after overnight incubation. Compounds were prepared as tenfold concentrated stock solutions, diluted in PBS (PAA, cat# H15-002), in v-bottom plates; 50 µL media from culture wells were mixed with the […] stock solutions, and 50 µL added back to the respective wells. Stimulation was performed with automated multichannel pipette and cells were kept in heated block during the stimulation. […]
# [2] = test system: Erk1/2 (T202/Y204) in rat DRG neurons; assay: High-content imaging of pERK1/2 in DRG sensory neurons; details: positive control Fsk 6 µM; 5 and 30 min
# Description: as §1, §2, §3, §4
# HEK293T cells = assay: Ca2+ influx induction, Fluo-8 calcium imaging; details: HEK293 cells
# Description: We examined the potential of xibalbins in a concentration range of 0.25 to 25 µg/ml regarding their effects on Ca^2+ influx in HEK293 cells, which express calcium channels. […] However, exposure to none of the four xibalbin variants by itself did increase [Ca^2+]i as measured by Fluo-8 calcium imaging assay. Additionally, none of the xibalbin variants modulated forskolin-induced [Ca^2+]i increase (Additional File 7: Figure S5 A). We also evaluated the effect of xibalbins on cAMP synthesis. However, xibalbins had no effect on increasing cAMP synthesis in HEK293 cells or on preventing the forskolin-induced cAMP synthesis (Additional File 7: Figure S5 B).
# Supplementary file 12915_2024_1955_MOESM7_ESM.jpg: Additional file 7: Figure S5. […] A threshold of fluorescence intensity was defined using cells before treatment, all cells above the threshold level were counted. […] For the induction assay (left panel), the luminescence was detected (background, 3 measurements every 5 min) and then the xibalbins (0.25, 2.5, 25 μg/ml) or 5 μM forskolin were added to detect the luminescence (3 measurements/5 min) using a plate reader (Spark, Tecan, Männedorf, Switzerland). For the inhibition assay (right panel), the xibalbin-treated cells were incubated with 5 μM forskolin to detect the luminescence (3 measurements/5 min). […] After 24 h NO was determined in supernatants with the Griess method. […]
smiles,measurement,setting,value
"C=C[C@@]1(C)CC(=O)[C@]2(O)[C@@]3(C)[C@@H](O)CCC(C)(C)[C@@H]3[C@H](O)[C@H](OC(C)=O)[C@@]2(C)O1 [Forskolin, reference compound]",pRII intensity,"[1]; positive control Fsk 6 µM, 5 and 30 min",increase
same,pRII response by neuron size,[1]; xibalbins 0.8 µg/µL,activated both small and large-sized sensory neurons
same,pERK1/2 intensity,[2],increase
same,increase of [Ca2+]i by positive control,HEK293T cells,increased [Ca^2+]i
